Reference: PubChem BioAssay AID2060892 (Molecular Pharmacology Branch, DTP, NCI, 2025)

Tested on: HOP-62 complex spheroids with HUVEC/MSC, viability
Test: Anticancer human tumor HOP-62 cell line growth inhibition [RAS];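 also: spheroids exposed to agents for seven days before readout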
Conditions: for IC50: curve of first compound; for viability, T/C: stronger effect = lower value; active = viability on the fitted dose curve at most 10% of control; inactive = the rest
Text: RAS pathway inhibitors in Combinations in Complex Spheroids
A high-throughput screen of multi-cell type tumor spheroids was designed to identify active combinations of RAS pathway inhibitors and targeted small molecules. Complex spheroids include a stromal component modeled by human endothelial cells (HUVEC) and fibroblasts modeled by human mesenchymal stem cells (MSCs). The concentration ranges selected for each drug and investigational agent were based upon clinically achievable concentrations if the clinical Cmax of the agent was known.
Compounds. The drugs and investigational agents: abemaciclib (NSC768073), cobimetinib (NSC768068), divarasib (GDC6063, NSC841802), docetaxel (NSC628503), GDC-1971 (RLY-1971, NSC841576), gemcitabine (NSC613327), inavolisib (NSC800729), ipatasertib (NSC767898), KB-0742 (NSC834161), MRTX-1133 (NSC836407), osimertinib (NSC779217), RMC-4630 (NSC839698), RMC-6236 (NSC851965), RMC-6291 (NSC852671), Ro-3306 (NSC812927), sapanisertib (NSC764658), SN-38 (NSC673596), staurosporine (NSC755774), SY5609 (NSC837396), and tovorafenib (DAY101, NSC766906), were obtained from the National Cancer Institute (NCI) Developmental Therapeutics Program Chemical Repository. The FDA-approved anticancer drug set is available from the NCI Developmental Therapeutics Program. […] The stock solutions were prepared in dimethyl sulfoxide (DMSO, Sigma-Aldrich, St. Louis, MO, cat. D2650) at 800-fold the tested concentration and stored at -70 degrees C prior to their use. All drugs and investigational agents were tested over a range starting from a high concentration at or near the clinical Cmax and decreasing in half-log increments. If the clinical Cmax for an agent had not been determined, the highest concentration tested was 10 microM.
Cell Culture. All cells were maintained in an incubator at 37 degrees C and 5% CO2 with 95% humidity. The PDC lines were cultured according to standard operating procedures established by the NCI PDMR. All PDCs were thawed and cultured in Matrigel-coated flasks prepared with a working solution of 1X Ham's F-12 nutrient mix, without supplementation (Invitrogen, Waltham, MA, cat. 11765054), 100 U/mL penicillin-streptomycin (Invitrogen, cat. 15140122), and 2.5% Matrigel (Corning Inc., Corning, NY, cat. 354248) for the first three passages. The 362531-283-R-J2-PDC and 782815-120-R-J1-PDC lines were cultured in 6C/Colon 1B media, which includes advanced DMEM/F-12 (Thermo Fisher Scientific, cat. 12634028), 10 mM HEPES (Thermo Fisher Scientific, cat. 15630080), 1X GlutaMAX supplement (Thermo Fisher Scientific, cat. 35050061), 0.1 mg/mL primocin (InvivoGen, San Diego, CA, cat. ant-pm-2), 10% defined fetal bovine serum, heat inactivated (HyClone Laboratories Inc., Logan, UT, cat. SH30070.03HI), 50% L-WRN conditioned media (ATCC, cat. CRL-3276), 1.25 mM N-Acetyl-L-cysteine (Sigma-Aldrich, cat. A9165), 10 mM nicotinamide (Sigma-Aldrich, cat. N0636), 1X B-27 supplement (Thermo Fisher Scientific, cat. 17504044), 1X N-2 supplement (Thermo Fisher Scientific, cat. 17502048), 50 ng/mL human EGF (Thermo Fisher Scientific, cat. PHG0311), and 10 microM Y-27632 dihydrochloride (Tocris Bioscience, cat. 1254). The K12877-001-R-J1-PDC line was cultured in 6I media, which includes all 6C/Colon 1B media plus 10 ng/mL human FGF-10 (PeproTech, cat. 100-26), 1 ng/mL human FGF-2 (PeproTech, cat. 100-18B), 1 µM prostaglandin E2 (Tocris Bioscience, cat. 2296), […] hydrocortisone (Sigma-Aldrich, cat. H4001), and […] bovine insulin (Sigma-Aldrich, cat. I6634). The K86415-001-R-J1-PDC line was cultured in 6D media, which includes all 6C/Colon 1B media components minus the L-WRN conditioned media. The 485176-168-R4-J1-PDC was cultured in PANC media, which includes all 6C/Colon 1B media plus 100 ng/mL human FGF-10 (PeproTech, cat. 100-26), 500 nM SB-431542 (Selleckchem, cat. S1067), and 10 nM gastrin (Tocris Bioscience, cat. 3006). […]

CCc1c2c(nc3ccc(O)cc13)-c1cc3c(c(=O)n1C2)COC(=O)[C@]3(O)CC + CCn1c(-c2cccnc2C(C)OC)c2c3cc(ccc31)N1CCOC(CC(NC(=O)C(C(C)C)N(C)C(=O)C3(F)CCN(C(=O)C#CC(C)(C)N(C)C)CC3)C(=O)N3CCCC(N3)C(=O)OCC(C)(C)C2)C1
< 0.949 nM: IC50 (second compound 0.000949 µM) | IC50 (second compound 0.003 µM) | IC50 (second compound 0.00949 µM) | IC50 (second compound 0.03 µM) | IC50 (second compound 0.0949 µM) | IC50 (second compound 0.3 µM)
active: viability, T/C (second compound 0.000949 µM, first compound 0.00949 µM) 6.01% | viability, T/C (second compound 0.000949 µM, first compound 0.03 µM) 6.3% | viability, T/C (second compound 0.000949 µM, first compound 0.0949 µM) 4.47% | viability, T/C (second compound 0.000949 µM, first compound 0.3 µM) 15.6% | viability, T/C (second compound 0.003 µM, first compound 0.00949 µM) 7.48% | viability, T/C (second compound 0.003 µM, first compound 0.03 µM) 7.59% | viability, T/C (second compound 0.003 µM, first compound 0.0949 µM) 5.27% | viability, T/C (second compound 0.003 µM, first compound 0.3 µM) 2.57% | viability, T/C (second compound 0.00949 µM, first compound 0.00949 µM) 8.71% | viability, T/C (second compound 0.00949 µM, first compound 0.03 µM) 5.6% | viability, T/C (second compound 0.00949 µM, first compound 0.0949 µM) 3.2% | viability, T/C (second compound 0.00949 µM, first compound 0.3 µM) 2.48% | viability, T/C (second compound 0.03 µM, first compound 0.00949 µM) 7.78% | viability, T/C (second compound 0.03 µM, first compound 0.03 µM) 6.23% | viability, T/C (second compound 0.03 µM, first compound 0.0949 µM) 2.8% | viability, T/C (second compound 0.03 µM, first compound 0.3 µM) 3.13% | viability, T/C (second compound 0.0949 µM, first compound 0.00949 µM) 9.82% | viability, T/C (second compound 0.0949 µM, first compound 0.03 µM) 6.01% | viability, T/C (second compound 0.0949 µM, first compound 0.0949 µM) 2.96% | viability, T/C (second compound 0.0949 µM, first compound 0.3 µM) 2.45% | viability, T/C (second compound 0.3 µM, first compound 0.00949 µM) 11% | viability, T/C (second compound 0.3 µM, first compound 0.03 µM) 4.25% | viability, T/C (second compound 0.3 µM, first compound 0.0949 µM) 3.87% | viability, T/C (second compound 0.3 µM, first compound 0.3 µM) 2.14%
inactive: viability, T/C (second compound 0.000949 µM, first compound 0.000949 µM) 45% | viability, T/C (second compound 0.000949 µM, first compound 0.003 µM) 15.7% | viability, T/C (second compound 0.003 µM, first compound 0.000949 µM) 45.6% | viability, T/C (second compound 0.003 µM, first compound 0.003 µM) 14.3% | viability, T/C (second compound 0.00949 µM, first compound 0.000949 µM) 41.5% | viability, T/C (second compound 0.00949 µM, first compound 0.003 µM) 13.7% | viability, T/C (second compound 0.03 µM, first compound 0.000949 µM) 41% | viability, T/C (second compound 0.03 µM, first compound 0.003 µM) 14.1% | viability, T/C (second compound 0.0949 µM, first compound 0.000949 µM) 36.4% | viability, T/C (second compound 0.0949 µM, first compound 0.003 µM) 14.8% | viability, T/C (second compound 0.3 µM, first compound 0.000949 µM) 28.9% | viability, T/C (second compound 0.3 µM, first compound 0.003 µM) 13.9%

CC(C)NCC(C(=O)N1CCN(c2ncnc3c2C(C)CC3O)CC1)c1ccc(Cl)cc1 (centres undefined) + CCn1c(-c2cc(N3CCN(C)CC3)cnc2C(C)OC)c2c3cc(ccc31)-c1csc(n1)CC(NC(=O)C1CC1C)C(=O)N1CCCC(N1)C(=O)OCC(C)(C)C2
< 31.6 nM: IC50 (second compound 0.03 µM) | IC50 (second compound 0.0949 µM) | IC50 (second compound 0.3 µM)
2300 nM: IC50 (second compound 0.003 µM)
587 nM: IC50 (second compound 0.00949 µM)
3880 nM: IC50 (second compound 0.000949 µM)
inactive: viability, T/C (second compound 0.000949 µM, first compound 0.0316 µM) 121% | viability, T/C (second compound 0.000949 µM, first compound 0.1 µM) 119% | viability, T/C (second compound 0.000949 µM, first compound 0.316 µM) 80.8% | viability, T/C (second compound 0.000949 µM, first compound 1 µM) 88.9% | viability, T/C (second compound 0.000949 µM, first compound 3.16 µM) 60% | viability, T/C (second compound 0.000949 µM, first compound 10 µM) 19.1% | viability, T/C (second compound 0.003 µM, first compound 0.0316 µM) 100% | viability, T/C (second compound 0.003 µM, first compound 0.1 µM) 95% | viability, T/C (second compound 0.003 µM, first compound 0.316 µM) 71.2% | viability, T/C (second compound 0.003 µM, first compound 1 µM) 71.3% | viability, T/C (second compound 0.003 µM, first compound 3.16 µM) 44.1% | viability, T/C (second compound 0.003 µM, first compound 10 µM) 17% | viability, T/C (second compound 0.00949 µM, first compound 0.0316 µM) 74.7% | viability, T/C (second compound 0.00949 µM, first compound 0.1 µM) 56.9% | viability, T/C (second compound 0.00949 µM, first compound 0.316 µM) 58.5% | viability, T/C (second compound 0.00949 µM, first compound 1 µM) 48.6% | viability, T/C (second compound 0.00949 µM, first compound 3.16 µM) 21.5% | viability, T/C (second compound 0.00949 µM, first compound 10 µM) 12.3% | viability, T/C (second compound 0.03 µM, first compound 0.0316 µM) 46.9% | viability, T/C (second compound 0.03 µM, first compound 0.1 µM) 46.3% | viability, T/C (second compound 0.03 µM, first compound 0.316 µM) 38.3% | viability, T/C (second compound 0.03 µM, first compound 1 µM) 31.7% | viability, T/C (second compound 0.03 µM, first compound 3.16 µM) 14.8% | viability, T/C (second compound 0.03 µM, first compound 10 µM) 15.3% | viability, T/C (second compound 0.0949 µM, first compound 0.0316 µM) 34.7% | viability, T/C (second compound 0.0949 µM, first compound 0.1 µM) 40.6% | viability, T/C (second compound 0.0949 µM, first compound 0.316 µM) 30.4% | viability, T/C (second compound 0.0949 µM, first compound 1 µM) 30.9% | viability, T/C (second compound 0.0949 µM, first compound 3.16 µM) 15% | viability, T/C (second compound 0.0949 µM, first compound 10 µM) 13.9% | viability, T/C (second compound 0.3 µM, first compound 0.0316 µM) 34.2% | viability, T/C (second compound 0.3 µM, first compound 0.1 µM) 38.6% | viability, T/C (second compound 0.3 µM, first compound 0.316 µM) 29.6% | viability, T/C (second compound 0.3 µM, first compound 1 µM) 22.4% | viability, T/C (second compound 0.3 µM, first compound 3.16 µM) 19.2% | viability, T/C (second compound 0.3 µM, first compound 10 µM) 14.5%
